Experimental data from ChEMBL document CHEMBL1201862, “PubChem BioAssay data set” (2004).
The source made the active and inactive calls. No stated cut-off is given here; in the data, actives have a measured IC50 and inactives only a lower limit.

These molecules were tested against Envelope glycoprotein gp160 (Human immunodeficiency virus 1, UniProt Q6QLK5) (assay: inhibitors of HIV fusion peptide binding, primary screen, biochemical, uHTS, fluorescence dequenching (AID 1986)).
Sequence of Envelope glycoprotein gp160 (Q6QLK5 whole entry, the tested form may be a part): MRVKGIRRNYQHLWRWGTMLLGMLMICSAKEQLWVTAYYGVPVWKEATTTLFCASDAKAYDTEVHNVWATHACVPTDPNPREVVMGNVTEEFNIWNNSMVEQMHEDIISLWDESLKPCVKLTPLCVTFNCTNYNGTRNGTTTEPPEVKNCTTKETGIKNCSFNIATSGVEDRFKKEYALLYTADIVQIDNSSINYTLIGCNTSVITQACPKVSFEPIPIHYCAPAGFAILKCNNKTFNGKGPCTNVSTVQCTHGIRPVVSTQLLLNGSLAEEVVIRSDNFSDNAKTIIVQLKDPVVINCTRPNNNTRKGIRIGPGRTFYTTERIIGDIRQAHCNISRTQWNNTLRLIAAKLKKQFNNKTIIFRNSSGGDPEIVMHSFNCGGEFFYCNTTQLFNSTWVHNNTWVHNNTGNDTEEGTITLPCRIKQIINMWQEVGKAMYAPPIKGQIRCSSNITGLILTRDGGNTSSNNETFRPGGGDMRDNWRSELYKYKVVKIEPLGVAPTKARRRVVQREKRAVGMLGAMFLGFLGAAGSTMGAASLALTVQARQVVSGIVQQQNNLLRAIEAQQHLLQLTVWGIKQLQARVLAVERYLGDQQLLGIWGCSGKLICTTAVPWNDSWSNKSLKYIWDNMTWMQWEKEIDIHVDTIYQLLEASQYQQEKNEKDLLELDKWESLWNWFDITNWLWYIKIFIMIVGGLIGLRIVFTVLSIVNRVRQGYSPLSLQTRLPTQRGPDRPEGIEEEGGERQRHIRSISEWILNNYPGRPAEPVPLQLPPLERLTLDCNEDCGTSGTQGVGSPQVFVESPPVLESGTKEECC
In the case of `O=[N+]([O-])c1cc([N+](=O)[O-])c2oc(-c3ccccc3)c(Br)c2c1O`, the IC50 is reported as 8.02 µM (active). In the case of `COc1cc(/C=C2/SC(=S)N(Cc3ccccc3)C2=O)ccc1OCC(=O)O`, the IC50 is reported as 17.3 µM (active). For `CCOc1cc(/C=C2\C(=N)N3N=C(S(C)(=O)=O)SC3=NC2=O)ccc1OCCOc1cccc(OC)c1`, the IC50 was 12 µM (active).
